Measured values from patent US9060967B2, “Stable aqueous formulation of (E)-4-carboxystyryl-4-chlorobenzyl sulfone” (ONCONOVA THERAPEUTICS, INC, priority 2010, dated 2015).

Legend:
Assay type in all cases: physicochemical
[1] = accelerated solid-state stability study of the bulk drug substance
Description: (§1) The physio-chemical properties of ON 01210.Na, as an exemplary efficacious radiation protectant drug, were determined in order to evaluate appropriate formulation approaches for development of a safe, reliable and effective parenteral formulation of this compound and other radioprotective α,β-unsaturated arylsulfones. Evaluation studies included microscopic studies, partition coefficient, pKa, pH solubility studies, pH stability studies under accelerated conditions, solid state characterization of the drug substance, and solid state stability of drug substance under accelerated conditions. […] This drug was reasonably stable in an aqueous environment at biological pH. Therefore, it was determined that ON 01210.Na could be formulated as a shelf stable parenteral formulation.

[2] = pH stability studies under accelerated conditions
Description: as §1

[3] = octanol:water partition coefficient (preformulation study)
Description: as §1

accelerated solid-state stability [1]: no evidence of degradation
degradation rate order [2]: pseudo-first-order
pH-stability profile, degradation ([2]; acidic conditions): rapid
pH-stability profile ([2]; neutral and biological pH): better stability
octanol:water partition coefficient [3]: 1.28-2.87
Structure (SMILES): O=C([O-])c1ccc(/C=C/S(=O)(=O)Cc2ccc(Cl)cc2)cc1.[Na+] [ON 01210.Na, (E)-4-Carboxystyryl-4-chlorobenzylsulfone, Sodium Salt]
